According to patent US6737383B1, “Herbicidal oxadiazolidines” (priority 1999, dated 2004):

Assays:
smallflower flatsedge = assay: Test B flood test smallflower flatsedge; type: in vivo, Cyperus difformis
Procedure, shortened: (§1)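 Plants were grown to the 2-leaf stage before treatment with test chemical, then held in a greenhouse for twelve to sixteen days. Injury was visually rated against untreated controls on a 0–10 scale, where 0 is no effect and 10 is complete control.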

velvetleaf = assay: Test B pre/postemergence velvetleaf; type: in vivo, Abutilon theophrasti
Procedure, shortened: (§2)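 Test chemicals in a non-phytotoxic solvent mixture with surfactant were sprayed preemergence onto planted seeds and postemergence onto plants 2 to 18 cm tall (1- to 4-leaf stage). After twelve to sixteen days in a greenhouse, injury was visually rated against untreated controls from 0 (no effect) to 10 (complete control).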

morningglory = assay: Test B pre/postemergence morningglory; type: in vivo, Ipomoea hederacea
Procedure, shortened: as §2

duck salad = assay: Test B flood test duck salad; type: in vivo, Heteranthera limosa
Procedure, shortened: as §1

rice = assay: Test B flood test rice; type: in vivo, Oryza sativa
Procedure, shortened: as §1

bedstraw = assay: Test B pre/postemergence bedstraw; type: in vivo, Galium aparine
Procedure, shortened: as §2

cocklebur = assay: Test B pre/postemergence cocklebur; type: in vivo, Xanthium strumarium
Procedure, shortened: as §2

pigweed = assay: Test B pre/postemergence pigweed; type: in vivo, Amaranthus retroflexus
Procedure, shortened: as §2

blackgrass = assay: Test B pre/postemergence blackgrass; type: in vivo, Alopecurus myosuroides
Procedure, shortened: as §2

surinam grass = assay: Test B pre/postemergence surinam grass; type: in vivo, Brachiaria decumbens
Procedure, shortened: as §2

purple nutsedge = assay: Test B pre/postemergence purple nutsedge; type: in vivo, Cyperus rotundus
Procedure, shortened: as §2

corn = assay: Test B pre/postemergence corn; type: in vivo, Zea mays
Procedure, shortened: as §2

wheat = assay: Test B pre/postemergence wheat; type: in vivo, Triticum aestivum
Procedure, shortened: as §2

bamyardgrass = assay: Test B flood test barnyardgrass; type: in vivo, Echinochloa crus-galli
Procedure, shortened: as §1

rape = assay: Test B pre/postemergence rape; type: in vivo, Brassica napus
Procedure, shortened: as §2

wild oat = assay: Test B pre/postemergence wild oat; type: in vivo, Avena fatua
Procedure, shortened: as §2

[1] = Rate 62 g/ha, headed Pre-emergence (flood test species), scale 0 to 10 (0 no effect, 10 complete control)
[2] = Rate 125 g/ha, Pre-emergence, flood test species, scale 0 to 10 where 0 is no effect and 10 is complete control
[3] = Rate 250 g/ha, headed Pre-emergence (flood test species), scale 0 to 10 (0 no effect, 10 complete control)
[4] = Rate 500 g/ha, headed Pre-emergence (flood test species), scale 0 to 10 (0 no effect, 10 complete control)
[5] = Postemergence, Rate 62 g/ha, scale 0 to 10, 0 is no effect, 10 is complete control
[6] = Postemergence, Rate 250 g/ha, scale 0 to 10, 0 no effect, 10 complete control
[7] = Preemergence, Rate 62 g/ha, scale 0 to 10 (0 no effect, 10 complete control)
[8] = Preemergence, Rate 125 g/ha, scale 0 to 10 (0 no effect, 10 complete control)
[9] = Preemergence, Rate 250 g/ha, scale of 0 to 10 where 0 is no effect and 10 is complete control
[10] = Preemergence, Rate 500 g/ha, scale 0 (no effect) to 10 (complete control)
[11] = Rate 125 g/ha, Postemergence, scale 0 to 10, 0 no effect, 10 complete control
[12] = Rate 500 g/ha, Postemergence, scale 0 to 10, 0 no effect, 10 complete control

CCN(Cc1ccccc1)C(=O)n1oc(=O)n(-c2ccccc2C)c1=O [Compound 71]
0: S. Flatsedge plant response rating (smallflower flatsedge; [1]) | S. Flatsedge plant response rating (smallflower flatsedge; [2]) | S. Flatsedge plant response rating (smallflower flatsedge; [3]) | Plant response rating, S. Flatsedge (smallflower flatsedge; [4]) | Velvetleaf plant response rating (velvetleaf; [5]) | Velvetleaf plant response rating (velvetleaf; [6]) | Velvetleaf plant response rating (velvetleaf; [7]) | Plant response rating, Velvetleaf (velvetleaf; [8]) | Plant response rating, Velvetleaf (velvetleaf; [9]) | Velvetleaf plant response rating (velvetleaf; [10]) | Velvetleaf plant response rating (velvetleaf; [11]) | Velvetleaf plant response rating (velvetleaf; [12]) | Morningglory plant response rating (morningglory; [5]) | Morningglory plant response rating (morningglory; [6]) | Morningglory plant response rating (morningglory; [7]) | Plant response rating, Morningglory (morningglory; [8]) | Plant response rating, Morningglory (morningglory; [9]) | Morningglory plant response rating (morningglory; [10]) | Morningglory plant response rating (morningglory; [11]) | Morningglory plant response rating (morningglory; [12]) | Ducksalad plant response rating (duck salad; [1]) | Ducksalad plant response rating (duck salad; [2]) | Ducksalad plant response rating (duck salad; [3]) | Plant response rating, Ducksalad (duck salad; [4]) | Rice plant response rating (rice; [1]) | Rice plant response rating (rice; [2]) | Rice plant response rating (rice; [3]) | Plant response rating, Rice (rice; [4]) | Bedstraw plant response rating (bedstraw; [5]) | Bedstraw plant response rating (bedstraw; [6]) | Bedstraw plant response rating (bedstraw; [7]) | Plant response rating, Bedstraw (bedstraw; [8]) | Plant response rating, Bedstraw (bedstraw; [9]) | Bedstraw plant response rating (bedstraw; [10]) | Bedstraw plant response rating (bedstraw; [11]) | Bedstraw plant response rating (bedstraw; [12]) | Cocklebur plant response rating (cocklebur; [5]) | Cocklebur plant response rating (cocklebur; [6]) | Cocklebur plant response rating (cocklebur; [7]) | Plant response rating, Cocklebur (cocklebur; [8]) | Plant response rating, Cocklebur (cocklebur; [9]) | Cocklebur plant response rating (cocklebur; [10]) | Cocklebur plant response rating (cocklebur; [11]) | Cocklebur plant response rating (cocklebur; [12]) | Redroot pigweed plant response rating (pigweed; [5]) | Redroot pigweed plant response rating (pigweed; [6]) | Redroot pigweed plant response rating (pigweed; [7]) | Plant response rating, Redroot pigweed (pigweed; [8]) | Plant response rating, Redroot pigweed (pigweed; [9]) | Redroot pigweed plant response rating (pigweed; [10]) | Redroot pigweed plant response rating (pigweed; [11]) | Redroot pigweed plant response rating (pigweed; [12]) | Blackgrass plant response rating (blackgrass; [5]) | Blackgrass plant response rating (blackgrass; [6]) | Blackgrass plant response rating (blackgrass; [7]) | Plant response rating, Blackgrass (blackgrass; [8]) | Plant response rating, Blackgrass (blackgrass; [9]) | Blackgrass plant response rating (blackgrass; [10]) | Blackgrass plant response rating (blackgrass; [11]) | Blackgrass plant response rating (blackgrass; [12]) | B. signalgrass plant response rating (surinam grass; [5]) | B. signalgrass plant response rating (surinam grass; [6]) | B. signalgrass plant response rating (surinam grass; [7]) | Plant response rating, B. signalgrass (surinam grass; [8]) | Plant response rating, B. signalgrass (surinam grass; [9]) | B. signalgrass plant response rating (surinam grass; [10]) | B. signalgrass plant response rating (surinam grass; [11]) | B. signalgrass plant response rating (surinam grass; Rate 500 g/ha, Postemergence, scale of 0 to 10 where 0 is no effect and 10 is complete control) | Nutsedge plant response rating (purple nutsedge; [5]) | Nutsedge plant response rating (purple nutsedge; [6]) | Nutsedge plant response rating (purple nutsedge; [7]) | Plant response rating, Nutsedge (purple nutsedge; [8]) | Plant response rating, Nutsedge (purple nutsedge; [9]) | Nutsedge plant response rating (purple nutsedge; [10]) | Nutsedge plant response rating (purple nutsedge; [11]) | Nutsedge plant response rating (purple nutsedge; [12]) | Corn plant response rating (corn; [5]) | Corn plant response rating (corn; [6]) | Corn plant response rating (corn; [7]) | Plant response rating, Corn (corn; [8]) | Plant response rating, Corn (corn; [9]) | Corn plant response rating (corn; [10]) | Corn plant response rating (corn; [11]) | Corn plant response rating (corn; [12]) | Wheat plant response rating (wheat; [5]) | Wheat plant response rating (wheat; [6]) | Wheat plant response rating (wheat; [7]) | Plant response rating, Wheat (wheat; [8]) | Plant response rating, Wheat (wheat; [9]) | Wheat plant response rating (wheat; [10]) | Wheat plant response rating (wheat; [11]) | Wheat plant response rating (wheat; [12]) | Barnyardgrass plant response rating (bamyardgrass; [1]) | Barnyardgrass plant response rating (bamyardgrass; [2]) | Barnyardgrass plant response rating (bamyardgrass; [3]) | Plant response rating, Barnyardgrass (bamyardgrass; [4]) | Rape plant response rating (rape; [5]) | Rape plant response rating (rape; [6]) | Rape plant response rating (rape; [7]) | Plant response rating, Rape (rape; [8]) | Plant response rating, Rape (rape; [9]) | Rape plant response rating (rape; [10]) | Rape plant response rating (rape; [11]) | Rape plant response rating (rape; [12]) | Wild oats plant response rating (wild oat; [5]) | Wild oats plant response rating (wild oat; [6]) | Wild oats plant response rating (wild oat; [7]) | Plant response rating, Wild oats (wild oat; [8]) | Plant response rating, Wild oats (wild oat; [9]) | Wild oats plant response rating (wild oat; [10]) | Wild oats plant response rating (wild oat; [11]) | Wild oats plant response rating (wild oat; [12])
